Data taken from patent publication US11161837B2, “Benzofuran derivatives for the treatment of hepatitis C” (BRISTOL-MYERS SQUIBB COMPANY, priority 2016, dated 2021).

Tested on: genotype 1b (Con-1) HCV replicon in Huh-7 cells
Assay: HCV replicon luciferase assay
Assay type: cell-based
Settings: 1b replicon, Huh-7, Renilla luciferase, 3 days incubation
Procedure: The cell lines used to evaluate compounds consist of a human hepatocyte derived cell line (Huh-7) that constitutively expresses a genotype 1b (Con-1) HCV replicon or a genotype 1b (Con-1) HCV replicon with an asparagine replacing the cysteine at amino acid 316, or a genotype 2a (JFH-1) replicon, containing a Renilla luciferase reporter gene. These cells were maintained in Dulbecco's modified Eagle medium (DMEM) containing 10% FBS, 100 U/mL penicillin/streptomycin and 1.0 mg/mL G418.
HCV Replicon Luciferase Assay.
To evaluate compound efficacy, titrated compounds were transferred to sterile 384-well tissue culture treated plates, and the plates were seeded with HCV replicon cells (50 μL at a density of 2.4×10^3 cells/well) in DMEM containing 4% FBS (final DMSO concentration at 0.5%). After 3 days incubation at 37° C., cells were analyzed for Renilla Luciferase activity using the EnduRen substrate (Promega cat # E6485) according to the manufacturer's directions. Briefly, the EnduRen substrate was diluted in DMEM and then added to the plates to a final concentration of 7.5 μM. The plates were incubated for at least 1 h at 37° C. then read on a Viewlux Imager (PerkinElmer) using a luminescence program. The 50% effective concentration (EC50) was calculated using the four-parameter logistic formula noted above.

CNC(=O)c1c(-c2ccc(F)cc2)oc2cc(CCC(F)(F)F)c(-c3cc(C(=O)NC4(C)CC(OC(F)F)C4)c(OC)cc3C)cc12 (single isomer, unassigned) [Example 53a, 5-(5-((3-(Difluoromethoxy)-1-methylcyclobutyl)carbamoyl)-4-methoxy-2-methylphenyl)-2-(4-fluorophenyl)-N-methyl-6-(3,3,3-trifluoropropyl)benzofuran-3-carboxamide]
EC50 (Hepatitis C virus, Huh-7, 72 h): 60 nM

CCCc1cc2oc(-c3ccc(F)cc3)c(C(=O)NC)c2cc1-c1ccc(F)c(C(=O)NC2(C)CC(OC(F)F)C2)c1 (single isomer, unassigned) [Example 61a, 5-(3-((3-(Difluoromethoxy)-1-methylcyclobutyl)carbamoyl)-4-fluorophenyl)-2-(4-fluorophenyl)-N-methyl-6-propylbenzofuran-3-carboxamide]
EC50 (Hepatitis C virus, Huh-7, 72 h): 20 nM

CCCc1cc2oc(-c3ccc(F)cc3)c(C(=O)NC)c2cc1-c1cccc(C(=O)NC2(C)CC(OC(F)F)C2)c1 (single isomer, unassigned) [Example 55a, 5-(3-((3-(Difluoromethoxy)-1-methylcyclobutyl)carbamoyl)phenyl)-2-(4-fluorophenyl)-N-methyl-6-propylbenzofuran-3-carboxamide]
EC50 (Hepatitis C virus, Huh-7, 72 h): 30 nM

CCCc1cc2oc(-c3ccc(F)cc3)c(C(=O)NC)c2cc1-c1ccc(F)c(C(=O)NC2(c3ncccn3)CC(OC(F)F)C2)c1 (stereo not shown) [Example 32, 5-(3-((3-(Difluoromethoxy)-1-(pyrimidin-2-yl)cyclobutyl)carbamoyl)-4-fluorophenyl)-2-(4-fluorophenyl)-N-methyl-6-propylbenzofuran-3-carboxamide]
EC50 (Hepatitis C virus, Huh-7, 72 h): 9.02 nM

CCCc1cc2oc(-c3ccc(F)cc3)c(C(=O)NC)c2cc1-c1cc(C(=O)NC2(c3ncccn3)CC(OC(F)F)C2)c(OC)cc1C (stereo not shown) [Example 39, 5-(5-((3-(Difluoromethoxy)-1-(pyrimidin-2-yl)cyclobutyl)carbamoyl)-4-methoxy-2-methylphenyl)-2-(4-fluorophenyl)-N-methyl-6-propylbenzofuran-3-carboxamide]
EC50 (Hepatitis C virus, Huh-7, 72 h): 20 nM

CCN(c1cc2oc(-c3ccc(F)cc3)c(C(=O)NC)c2c(F)c1-c1cccc(C(=O)NC2(c3ncccn3)CC(OC(F)F)C2)c1)S(C)(=O)=O (stereo not shown) [Example 21, 5-(3-((3-(Difluoromethoxy)-1-(pyrimidin-2-yl)cyclobutyl)carbamoyl)phenyl)-6-(N-ethylmethylsulfonamido)-4-fluoro-2-(4-fluorophenyl)-N-methylbenzofuran-3-carboxamide]
EC50 (Hepatitis C virus, Huh-7, 72 h): 2.23 nM

CCN(c1cc2oc(-c3ccc(F)cc3)c(C(=O)NC)c2c(F)c1-c1ccc(OC)c(C(=O)NC2(c3ncccn3)CC(F)C2)c1)S(C)(=O)=O (stereo not shown) [Example 26, 6-(N-ethylmethylsulfonamido)-4-fluoro-5-(3-((3-fluoro-1-(pyrimidin-2-yl)cyclobutyl)carbamoyl)-4-methoxyphenyl)-2-(4-fluorophenyl)-N-methylbenzofuran-3-carboxamide]
EC50 (Hepatitis C virus, Huh-7, 72 h): 2.25 nM

CNC(=O)c1c(-c2ccc(F)cc2)oc2cc(CCC(F)(F)F)c(-c3ccc(F)c(C(=O)NC4(c5ncccn5)CC(OC(F)(F)F)C4)c3)cc12 (single isomer, unassigned) [Example 49a, 5-(4-Fluoro-3-((1-(pyrimidin-2-yl)-3-(trifluoromethoxy)cyclobutyl)carbamoyl)phenyl)-2-(4-fluorophenyl)-N-methyl-6-(3,3,3-trifluoropropyl)benzofuran-3-carboxamide]
EC50 (Hepatitis C virus, Huh-7, 72 h): 20 nM

CNC(=O)c1c(-c2ccc(F)cc2)oc2cc(CCC(F)(F)F)c(-c3cc(C(=O)NC4(c5ncccn5)CC(OC(F)(F)F)C4)c(OC)cc3C)cc12 (single isomer, unassigned) [Example 46a, 2-(4-Fluorophenyl)-5-(4-methoxy-2-methyl-5-((1-(pyrimidin-2-yl)-3-(trifluoromethoxy)cyclobutyl)carbamoyl)phenyl)-N-methyl-6-(3,3,3-trifluoropropyl)benzofuran-3-carboxamide]
EC50 (Hepatitis C virus, Huh-7, 72 h): 40 nM

CCCc1cc2oc(-c3ccc(F)cc3)c(C(=O)NC)c2cc1-c1cccc(C(=O)NC2(c3ncccn3)CC(OC(F)F)C2)c1 (stereo not shown) [Example 33, 5-(3-((3-(Difluoromethoxy)-1-(pyrimidin-2-yl)cyclobutyl)carbamoyl)phenyl)-2-(4-fluorophenyl)-N-methyl-6-propylbenzofuran-3-carboxamide]
EC50 (Hepatitis C virus, Huh-7, 72 h): 4.55 nM

CCN(c1cc2oc(-c3ccc(F)cc3)c(C(=O)NC)c2c(F)c1-c1cccc(C(=O)NC2(c3ncccn3)CC(F)C2)c1)S(C)(=O)=O (stereo not shown) [Example 22, 6-(N-ethylmethylsulfonamido)-4-fluoro-5-(3-((3-fluoro-1-(pyrimidin-2-yl)cyclobutyl)carbamoyl)phenyl)-2-(4-fluorophenyl)-N-methylbenzofuran-3-carboxamide]
EC50 (Hepatitis C virus, Huh-7, 72 h): 4.94 nM

CNC(=O)c1c(-c2ccc(F)cc2)oc2cc(CCC(F)(F)F)c(-c3cc(C(=O)NC4(c5ncccn5)CC(OC(F)F)C4)c(OC)cc3C)cc12 (stereo not shown) [Example 41, 5-(5-((3-(Difluoromethoxy)-1-(pyrimidin-2-yl)cyclobutyl)carbamoyl)-4-methoxy-2-methylphenyl)-2-(4-fluorophenyl)-N-methyl-6-(3,3,3-trifluoropropyl)benzofuran-3-carboxamide]
EC50 (Hepatitis C virus, Huh-7, 72 h): 20 nM

CCCc1cc2oc(-c3ccc(F)cc3)c(C(=O)NC)c2cc1-c1cc(C(=O)NC2(c3ncccn3)CC(OC(F)(F)F)C2)c(OC)cc1C (single isomer, unassigned) [Example 50a, 2-(4-Fluorophenyl)-5-(4-methoxy-2-methyl-5-((1-(pyrimidin-2-yl)-3-(trifluoromethoxy)cyclobutyl)carbamoyl)phenyl)-N-methyl-6-propylbenzofuran-3-carboxamide]
EC50 (Hepatitis C virus, Huh-7, 72 h): 120 nM

CCCc1cc2oc(-c3ccc(F)cc3)c(C(=O)NC)c2cc1-c1ccc(F)c(C(=O)NC2(c3ncccn3)CC(OC(F)(F)F)C2)c1 (single isomer, unassigned) [Example 48a, 5-(4-Fluoro-3-((1-(pyrimidin-2-yl)-3-(trifluoromethoxy)cyclobutyl)carbamoyl)phenyl)-2-(4-fluorophenyl)-N-methyl-6-propylbenzofuran-3-carboxamide]
EC50 (Hepatitis C virus, Huh-7, 72 h): 20 nM

CNC(=O)c1c(-c2ccc(F)cc2)oc2cc(CCC(F)(F)F)c(-c3cc(C(=O)NC4(c5ncccn5)CC(OC(F)(F)F)C4)c(OC)cc3C)cc12 (single isomer, unassigned) [Example 46b, 2-(4-Fluorophenyl)-5-(4-methoxy-2-methyl-5-((1-(pyrimidin-2-yl)-3-(trifluoromethoxy)cyclobutyl)carbamoyl)phenyl)-N-methyl-6-(3,3,3-trifluoropropyl)benzofuran-3-carboxamide]
EC50: 80 nM

CCCc1cc2oc(-c3ccc(F)cc3)c(C(=O)NC)c2cc1-c1cc(C(=O)NC2(C)CC(OC(F)F)C2)c(OC)cc1C (single isomer, unassigned) [Example 57b, 5-(5-((3-(Difluoromethoxy)-1-methylcyclobutyl)carbamoyl)-4-methoxy-2-methylphenyl)-2-(4-fluorophenyl)-N-methyl-6-propylbenzofuran-3-carboxamide]
EC50: 70 nM
